Results taken from PubChem BioAssay (NCI).
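1) Cells in 96-well plates. 2) Compound, 48 h, 5 concentrations. 3) Linear interpolation between surrounding doses. 4) Unreached endpoint = highest concentration. GI50 = concentration required for 50% inhibition of growth. TGI: total growth inhibition.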

What was measured:
Test in all cases: NCI anticancer screen, dose series, 48 h
CAKI-1 renal = system: CAKI-1 renal
HOP-62 NSCLC = system: HOP-62 NSCLC
RXF 393 renal = system: RXF 393 renal
HL-60(TB) leukemia = system: HL-60(TB) leukemia
SW-620 colon = system: SW-620 colon
OVCAR-5 ovarian = system: OVCAR-5 ovarian
SF-539 CNS = system: SF-539 CNS
SK-OV-3 ovarian = system: SK-OV-3 ovarian
PC-3 prostate = system: PC-3 prostate
HCC-2998 colon = system: HCC-2998 colon
SN12C renal = system: SN12C renal
OVCAR-4 ovarian = system: OVCAR-4 ovarian
HT29 colon = system: HT29 colon
NCI/ADR-RES ovarian = system: NCI/ADR-RES ovarian
IGROV1 ovarian = system: IGROV1 ovarian
HCT-15 colon = system: HCT-15 colon
BT-549 breast = system: BT-549 breast
T-47D breast = system: T-47D breast
EKVX NSCLC = system: EKVX NSCLC
SK-MEL-28 melanoma = system: SK-MEL-28 melanoma
NCI-H23 lung = system: NCI-H23 lung
SNB-19 CNS = system: SNB-19 CNS
NCI-H522 lung = system: NCI-H522 lung
OVCAR-3 ovarian = system: OVCAR-3 ovarian
NCI-H460 lung = system: NCI-H460 lung
LOX IMVI melanoma = system: LOX IMVI melanoma
MDA-MB-231 breast = system: MDA-MB-231 breast
UO-31 renal = system: UO-31 renal
ACHN renal = system: ACHN renal
U251 CNS = system: U251 CNS
SK-MEL-5 melanoma = system: SK-MEL-5 melanoma
NCI-H226 lung = system: NCI-H226 lung
SK-MEL-2 melanoma = system: SK-MEL-2 melanoma
HOP-92 NSCLC = system: HOP-92 NSCLC
CCRF-CEM leukemia = system: CCRF-CEM leukemia
SNB-75 CNS = system: SNB-75 CNS
OVCAR-8 ovarian = system: OVCAR-8 ovarian
MALME-3M melanoma = system: MALME-3M melanoma
COLO 205 colon = system: COLO 205 colon
HCT-116 colon = system: HCT-116 colon
UACC-62 melanoma = system: UACC-62 melanoma
A549 NSCLC = system: A549 NSCLC
KM12 colon = system: KM12 colon
MOLT-4 leukemia = system: MOLT-4 leukemia
UACC-257 melanoma = system: UACC-257 melanoma
HS 578T breast = system: HS 578T breast
786-0 renal = system: 786-0 renal
SF-268 CNS = system: SF-268 CNS
TK-10 renal = system: TK-10 renal
RPMI-8226 leukemia = system: RPMI-8226 leukemia
A498 renal = system: A498 renal
K-562 leukemia = system: K-562 leukemia
M14 melanoma = system: M14 melanoma
MDA-MB-435 = system: MDA-MB-435
MCF7 breast = system: MCF7 breast
DU-145 prostate = system: DU-145 prostate
SF-295 CNS = system: SF-295 CNS

Compound N#Cc1nc(-c2ccccc2)oc1S(=O)(=O)N1CCOCC1 has a GI50 (CAKI-1 renal) of 1.61 µM, a TGI (CAKI-1 renal) of 3.04 µM and a GI50 (HOP-62 NSCLC) of 34.7 µM. The TGI (HOP-62 NSCLC) was over 100 µM, the GI50 (RXF 393 renal) was 1.68 µM and the TGI (RXF 393 renal) was 3.08 µM. It also gave a GI50 (HL-60(TB) leukemia) of 2.08 µM, a TGI (HL-60(TB) leukemia) of 4.79 µM and a GI50 (SW-620 colon) of 2.04 µM. It also gave a TGI (SW-620 colon) of 4.84 µM, a GI50 (OVCAR-5 ovarian) of 13.6 µM and a TGI (OVCAR-5 ovarian) of 27.6 µM. It also gave a GI50 (SF-539 CNS) of 2.6 µM, a TGI (SF-539 CNS) of 7.69 µM and a GI50 (SK-OV-3 ovarian) of 56.2 µM. The TGI (SK-OV-3 ovarian) was over 100 µM, the GI50 (PC-3 prostate) was 5.79 µM and the TGI (PC-3 prostate) was 20.8 µM. It also gave a GI50 (HCC-2998 colon) of 17.3 µM, a TGI (HCC-2998 colon) of 33.7 µM and a GI50 (SN12C renal) of 4.12 µM. It also gave a TGI (SN12C renal) of 17.1 µM, a GI50 (OVCAR-4 ovarian) of 2.73 µM and a TGI (OVCAR-4 ovarian) of 9.2 µM. The GI50 (HT29 colon) was 4.82 µM, the TGI (HT29 colon) was 25.4 µM and the GI50 (NCI/ADR-RES ovarian) was 14.8 µM. It also gave a TGI (NCI/ADR-RES ovarian) of 84.2 µM, a GI50 (IGROV1 ovarian) of 8 µM and a TGI (IGROV1 ovarian) of 23.2 µM. For the same compound, the GI50 (HCT-15 colon) was 1.45 µM, the TGI (HCT-15 colon) was 3.39 µM and the GI50 (BT-549 breast) was 6.67 µM. The TGI (BT-549 breast) was 19.6 µM, the GI50 (T-47D breast) was 1.78 µM and the TGI (T-47D breast) was 3.84 µM. The GI50 (EKVX NSCLC) was 4.4 µM, the TGI (EKVX NSCLC) was 24.9 µM and the GI50 (SK-MEL-28 melanoma) was 2.46 µM. For the same compound, the TGI (SK-MEL-28 melanoma) was 6.5 µM, the GI50 (NCI-H23 lung) was 8.6 µM and the TGI (NCI-H23 lung) was 26 µM. The GI50 (SNB-19 CNS) was 28 µM, the TGI (SNB-19 CNS) was over 100 µM and the GI50 (NCI-H522 lung) was 0.702 µM. It also gave a TGI (NCI-H522 lung) of 3 µM, a GI50 (OVCAR-3 ovarian) of 2.02 µM and a TGI (OVCAR-3 ovarian) of 3.76 µM. The GI50 (NCI-H460 lung) was 17.3 µM, the TGI (NCI-H460 lung) was 37.2 µM and the GI50 (LOX IMVI melanoma) was 1.46 µM. For the same compound, the TGI (LOX IMVI melanoma) was 2.91 µM, the GI50 (MDA-MB-231 breast) was 14.1 µM and the TGI (MDA-MB-231 breast) was 29.9 µM. The GI50 (UO-31 renal) was 1.51 µM, the TGI (UO-31 renal) was 2.89 µM and the GI50 (ACHN renal) was 1.76 µM. The TGI (ACHN renal) was 3.15 µM, the GI50 (U251 CNS) was 17.7 µM and the TGI (U251 CNS) was 42.2 µM. For the same compound, the GI50 (SK-MEL-5 melanoma) was 5.23 µM, the TGI (SK-MEL-5 melanoma) was 17.3 µM and the GI50 (NCI-H226 lung) was 3.67 µM. For the same compound, the TGI (NCI-H226 lung) was 16.1 µM, the GI50 (SK-MEL-2 melanoma) was 12.7 µM and the TGI (SK-MEL-2 melanoma) was 29.8 µM. The GI50 (HOP-92 NSCLC) was 1.6 µM, the TGI (HOP-92 NSCLC) was 3.15 µM and the GI50 (CCRF-CEM leukemia) was 1.73 µM. The TGI (CCRF-CEM leukemia) was 14.6 µM, the GI50 (SNB-75 CNS) was 11.2 µM and the TGI (SNB-75 CNS) was 23.7 µM. It also gave a GI50 (OVCAR-8 ovarian) of 3.55 µM, a TGI (OVCAR-8 ovarian) of 16.2 µM and a GI50 (MALME-3M melanoma) of 1.59 µM. For the same compound, the TGI (MALME-3M melanoma) was 3.15 µM, the GI50 (COLO 205 colon) was 2.23 µM and the TGI (COLO 205 colon) was 4.91 µM. It also gave a GI50 (HCT-116 colon) of 1.74 µM, a TGI (HCT-116 colon) of 3.42 µM and a GI50 (UACC-62 melanoma) of 9.33 µM. The TGI (UACC-62 melanoma) was 21.4 µM, the GI50 (A549 NSCLC) was 27.9 µM and the TGI (A549 NSCLC) was over 100 µM. The GI50 (KM12 colon) was 23.6 µM, the TGI (KM12 colon) was 68 µM and the GI50 (MOLT-4 leukemia) was 2.01 µM. For the same compound, the TGI (MOLT-4 leukemia) was 5.08 µM, the GI50 (UACC-257 melanoma) was 4.74 µM and the TGI (UACC-257 melanoma) was 19 µM. For the same compound, the GI50 (HS 578T breast) was 16.3 µM, the TGI (HS 578T breast) was 50 µM and the GI50 (786-0 renal) was 16 µM. It also gave a TGI (786-0 renal) of 32 µM, a GI50 (SF-268 CNS) of 13.5 µM and a TGI (SF-268 CNS) of 40.4 µM. The GI50 (TK-10 renal) was 6.25 µM, the TGI (TK-10 renal) was 19.2 µM and the GI50 (RPMI-8226 leukemia) was 2.58 µM. The TGI (RPMI-8226 leukemia) was 7.89 µM, the GI50 (A498 renal) was 15.6 µM and the TGI (A498 renal) was 32 µM. For the same compound, the GI50 (K-562 leukemia) was 2.03 µM, the TGI (K-562 leukemia) was over 100 µM and the GI50 (M14 melanoma) was 2.26 µM. It also gave a TGI (M14 melanoma) of 7.42 µM, a GI50 (MDA-MB-435) of 4.03 µM and a TGI (MDA-MB-435) of 15.1 µM. It also gave a GI50 (MCF7 breast) of 2.74 µM, a TGI (MCF7 breast) of 13.1 µM and a GI50 (DU-145 prostate) of 6.08 µM. It also gave a TGI (DU-145 prostate) of 19.1 µM, a GI50 (SF-295 CNS) of 38.2 µM and a TGI (SF-295 CNS) of over 100 µM.
